According to patent US20020137929A1, “1 - (3-heterocyclylphenyl) isothiourea, -isourea, -guanidine and -amidine herbicidal agents” (Intellectual Property Department, BASF Aktiengesellschaft, priority 1998, published 2002):

Legend:
ORYSAT (Rice, Tebonnet) = experiment: Postemergence herbicidal evaluation; assay type: in vivo, Oryza sativa, (L.) Tebonnet
Method in brief: (§1)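 First, seedlings were raised for around two weeks. Next, test material in 50/50 acetone/water containing 0.5% TWEEN 20 was sprayed through a nozzle at 40 psi, equivalent to about 0.0156–0.500 kg/ha. Finally, after 4–5 weeks in the greenhouse, plants were rated 0–9.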

GALAP (Galium) [1] = experiment: Postemergence herbicidal evaluation; assay type: in vivo, Galium aparine
Method in brief: as §1

GALAP (Galium) [2] = experiment: Preemergence herbicidal evaluation; assay type: in vivo, Galium aparine; conditions: rated 4-5 weeks after treatment
Method in brief: (§2)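 Sown cups got a single aqueous acetone spray of test compound (roughly 0.0156–0.500 kg/ha) before seedlings emerged. Evaluation, 4–5 weeks on, used a 0–9 visual scale covering plant stand, vigor, size, malformation, chlorosis and general appearance compared with controls.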

[3] = system: CHEAL (Lambsquarters, Common); experiment: Postemergence herbicidal evaluation; assay type: in vivo, Chenopodium album
Method in brief: as §1

CYPSE (Flatsedge) [4] = experiment: Postemergence weed control under flooded paddy conditions; assay type: in vivo, Cyperus serotinus; conditions: postemergence weeds, 3-4 weeks after treatment
Method in brief: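 Flood-water application, about 0.0313–0.500 kg/ha a.i. in aqueous/acetone 50/50 v/v; water depth 1.5–3 cm throughout. Weeds 3–5 cm, rice 1.5–2.5 leaf. Greenhouse; 0–9 visual rating vs control at 3–4 wk.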

CASOB (Sicklepod) [5] = experiment: Postemergence herbicidal evaluation; assay type: in vivo, Cassia obtusifolia
Method in brief: as §1

ECHCG (Barnyardgrass) = experiment: Postemergence herbicidal evaluation; assay type: in vivo, Echinochloa crus-galli
Method in brief: as §1

CASOB (Sicklepod) [6] = experiment: Preemergence herbicidal evaluation; assay type: in vivo, Cassia obtusifolia; conditions: rated 4-5 weeks after treatment
Method in brief: as §2

CYPIR (Rice Flatsedge) = experiment: Preemergence weed control under flooded paddy conditions; assay type: in vivo, Cyperus iria; conditions: rated 3-4 weeks after treatment
Method in brief: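 First, seeds or propagules go into the top 0.5 cm of silt loam; next, water is held 1.5 to 3 cm over the soil; then compound (50/50 acetone/water) is pipetted into it at about 0.0313 to 0.500 kg/ha; finally plants are rated visually 0-9 after three to four weeks.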

ZEAMX (Corn, Field) = experiment: Preemergence herbicidal evaluation; assay type: in vivo, Zea mays; conditions: rated 4-5 weeks after treatment
Method in brief: as §2

AMBEL (Ragweed, Common) = experiment: Postemergence herbicidal evaluation; assay type: in vivo, Ambrosia artemisifolia
Method in brief: as §1

SETVI (Foxtail, Green) = experiment: Postemergence herbicidal evaluation; assay type: in vivo, Setaria viridis
Method in brief: as §1

[7] = system: SAGPY (Arrowhead (Pygmaea)); experiment: Preemergence weed control under flooded paddy conditions; assay type: in vivo, Sagittaria pygmaea; conditions: rated 3-4 weeks after treatment
Method in brief: (§3)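 Values are visual 0-9 scores against a control for a preemergence application into paddy flood water at about 0.0313 to 0.500 kg/ha. Greenhouse duration was three to four weeks.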

[8] = system: GLXMAW (Soybean, Williams); experiment: Postemergence herbicidal evaluation; assay type: in vivo, Glycine max, (L.) Merr. cv Williams
Method in brief: as §1

CYPSE (Flatsedge) [9] = experiment: Preemergence weed control under flooded paddy conditions; assay type: in vivo, Cyperus serotinus; conditions: rated 3-4 weeks after treatment
Method in brief: as §3

CCOC(=O)CN1C(=O)C(CC(=O)O)SC1=Nc1cc(-n2c(=O)cc(C(F)(F)F)n(C)c2=O)c(Cl)cc1Cl (stereo not drawn) [Compound 33, 2-{{2,4-Dichloro-5-[3,6-dihydro-3-methyl-2,6-dioxo-4-(trifluoromethyl)-1(2H)-pyrimidinyl]phenyl}-imino}-4-oxo-3,5-thiazolidinediacetic acid, 3-ethyl ester]
Postemergence herbicidal rating ORYSAT (ORYSAT (Rice, Tebonnet); Rate 0.0158 kg/ha): 0.5 | Postemergence herbicidal rating ORYSAT (ORYSAT (Rice, Tebonnet); Rate 0.0315 kg/ha): 2.0 | Postemergence herbicidal rating ORYSAT (ORYSAT (Rice, Tebonnet); Rate 0.0630 kg/ha): 2.0 | Postemergence herbicidal rating GALAP (GALAP (Galium) [1]; Rate 0.0158 kg/ha): 3.0 | Postemergence herbicidal rating GALAP (GALAP (Galium) [1]; Rate 0.0315 kg/ha): 4.0 | Postemergence herbicidal rating GALAP (GALAP (Galium) [1]; Rate 0.0630 kg/ha): 5.0 | Preemergence herbicidal rating GALAP (GALAP (Galium) [2]; rate 0.0156 kg/ha): 0.0 | Preemergence herbicidal rating GALAP (GALAP (Galium) [2]; rate 0.0313 kg/ha): 0.0 | Preemergence herbicidal rating GALAP (GALAP (Galium) [2]; rate 0.0625 kg/ha): 0.0 | Postemergence herbicidal rating CHEAL ([3]; Rate 0.0158 kg/ha): 9.0 | Postemergence herbicidal rating CHEAL ([3]; Rate 0.0315 kg/ha): 9.0 | Postemergence herbicidal rating CHEAL ([3]; Rate 0.0630 kg/ha): 9.0 | Herbicidal rating CYPSE (CYPSE (Flatsedge) [4]; rate 0.2500 kg/ha): 0.0 | Postemergence herbicidal rating CASOB (CASOB (Sicklepod) [5]; Rate 0.0158 kg/ha): 0.0 | Postemergence herbicidal rating CASOB (CASOB (Sicklepod) [5]; Rate 0.0315 kg/ha): 1.0 | Postemergence herbicidal rating CASOB (CASOB (Sicklepod) [5]; Rate 0.0630 kg/ha): 5.0 | Postemergence herbicidal rating ECHCG (ECHCG (Barnyardgrass); Rate 0.0158 kg/ha): 2.0 | Postemergence herbicidal rating ECHCG (ECHCG (Barnyardgrass); Rate 0.0315 kg/ha): 9.0 | Postemergence herbicidal rating ECHCG (ECHCG (Barnyardgrass); Rate 0.0630 kg/ha): 9.0 | Preemergence herbicidal rating CASOB (CASOB (Sicklepod) [6]; rate 0.0156 kg/ha): 0.0 | Preemergence herbicidal rating CASOB (CASOB (Sicklepod) [6]; rate 0.0313 kg/ha): 0.0 | Preemergence herbicidal rating CASOB (CASOB (Sicklepod) [6]; rate 0.0625 kg/ha): 0.0 | Preemergence herbicidal rating CASOB (CASOB (Sicklepod) [6]; rate 0.1250 kg/ha): 4.0 | Preemergence herbicidal rating CASOB (CASOB (Sicklepod) [6]; rate 0.2500 kg/ha): 9.0 | Herbicidal rating CYPIR (CYPIR (Rice Flatsedge); 0.2500 kg/ha): 0.0 | Preemergence herbicidal rating ZEAMX (ZEAMX (Corn, Field); rate 0.0156 kg/ha): 0.0 | Preemergence herbicidal rating ZEAMX (ZEAMX (Corn, Field); rate 0.0313 kg/ha): 0.0 | Preemergence herbicidal rating ZEAMX (ZEAMX (Corn, Field); rate 0.0625 kg/ha): 0.0 | Preemergence herbicidal rating ZEAMX (ZEAMX (Corn, Field); rate 0.1250 kg/ha): 0.0 | Preemergence herbicidal rating ZEAMX (ZEAMX (Corn, Field); rate 0.2500 kg/ha): 0.0 | Postemergence herbicidal rating AMBEL (AMBEL (Ragweed, Common); Rate 0.0158 kg/ha): 9.0 | Postemergence herbicidal rating AMBEL (AMBEL (Ragweed, Common); Rate 0.0315 kg/ha): 9.0 | Postemergence herbicidal rating AMBEL (AMBEL (Ragweed, Common); Rate 0.0630 kg/ha): 9.0 | Postemergence herbicidal rating SETVI (SETVI (Foxtail, Green); Rate 0.0158 kg/ha): 4.0 | Postemergence herbicidal rating SETVI (SETVI (Foxtail, Green); Rate 0.0315 kg/ha): 7.0 | Postemergence herbicidal rating SETVI (SETVI (Foxtail, Green); Rate 0.0630 kg/ha): 8.0 | Herbicidal rating SAGPY ([7]; 0.2500 kg/ha): 0.0 | Postemergence herbicidal rating GLXMAW ([8]; Rate 0.0158 kg/ha): 7.0 | Postemergence herbicidal rating GLXMAW ([8]; Rate 0.0315 kg/ha): 8.5 | Postemergence herbicidal rating GLXMAW ([8]; Rate 0.0630 kg/ha): 8.5 | Herbicidal rating CYPSE (CYPSE (Flatsedge) [9]; 0.2500 kg/ha): 0.0

CCOC(=O)CN1CC(=O)N(CC(=O)OCC)C1=Nc1cc(-n2c(=O)cc(C(F)(F)F)n(C)c2=O)c(F)cc1Cl [Compound 34, 2-{{2-Chloro-5-[3,6-dihydro-3-methyl-2,6-dioxo-4-(trifluoromethyl)-1(2H)-pyrimidinyl]-4-fluoro-phenyl}imino}-4-oxo-1,3-imidazolidinediacetic acid, diethyl ester]
Postemergence herbicidal rating ORYSAT (ORYSAT (Rice, Tebonnet); Rate 0.0158 kg/ha): 1.0 | Postemergence herbicidal rating ORYSAT (ORYSAT (Rice, Tebonnet); Rate 0.0315 kg/ha): 2.0 | Postemergence herbicidal rating ORYSAT (ORYSAT (Rice, Tebonnet); Rate 0.0630 kg/ha): 3.5 | Postemergence herbicidal rating GALAP (GALAP (Galium) [1]; Rate 0.0158 kg/ha): 4.0 | Postemergence herbicidal rating GALAP (GALAP (Galium) [1]; Rate 0.0315 kg/ha): 9.0 | Postemergence herbicidal rating GALAP (GALAP (Galium) [1]; Rate 0.0630 kg/ha): 6.0 | Preemergence herbicidal rating GALAP (GALAP (Galium) [2]; rate 0.0313 kg/ha): 0.0 | Preemergence herbicidal rating GALAP (GALAP (Galium) [2]; rate 0.0625 kg/ha): 7.0 | Preemergence herbicidal rating GALAP (GALAP (Galium) [2]; rate 0.1250 kg/ha): 7.0 | Preemergence herbicidal rating GALAP (GALAP (Galium) [2]; rate 0.2500 kg/ha): 9.0 | Postemergence herbicidal rating CHEAL ([3]; Rate 0.0158 kg/ha): 7.0 | Postemergence herbicidal rating CHEAL ([3]; Rate 0.0315 kg/ha): 9.0 | Postemergence herbicidal rating CHEAL ([3]; Rate 0.0630 kg/ha): 9.0 | Herbicidal rating CYPSE (CYPSE (Flatsedge) [4]; rate 0.0313 kg/ha): 0.0 | Herbicidal rating CYPSE (CYPSE (Flatsedge) [4]; rate 0.0625 kg/ha): 0.0 | Herbicidal rating CYPSE (CYPSE (Flatsedge) [4]; rate 0.1250 kg/ha): 0.0 | Herbicidal rating CYPSE (CYPSE (Flatsedge) [4]; rate 0.2500 kg/ha): 0.0 | Postemergence herbicidal rating CASOB (CASOB (Sicklepod) [5]; Rate 0.0158 kg/ha): 0.0 | Postemergence herbicidal rating CASOB (CASOB (Sicklepod) [5]; Rate 0.0315 kg/ha): 0.0 | Postemergence herbicidal rating CASOB (CASOB (Sicklepod) [5]; Rate 0.0630 kg/ha): 0.0 | Postemergence herbicidal rating ECHCG (ECHCG (Barnyardgrass); Rate 0.0158 kg/ha): 0.0 | Postemergence herbicidal rating ECHCG (ECHCG (Barnyardgrass); Rate 0.0315 kg/ha): 0.0 | Postemergence herbicidal rating ECHCG (ECHCG (Barnyardgrass); Rate 0.0630 kg/ha): 1.0 | Preemergence herbicidal rating CASOB (CASOB (Sicklepod) [6]; rate 0.0313 kg/ha): 0.0 | Preemergence herbicidal rating CASOB (CASOB (Sicklepod) [6]; rate 0.0625 kg/ha): 0.0 | Preemergence herbicidal rating CASOB (CASOB (Sicklepod) [6]; rate 0.1250 kg/ha): 0.0 | Preemergence herbicidal rating CASOB (CASOB (Sicklepod) [6]; rate 0.2500 kg/ha): 0.0 | Herbicidal rating CYPIR (CYPIR (Rice Flatsedge); 0.0313 kg/ha): 0.0 | Herbicidal rating CYPIR (CYPIR (Rice Flatsedge); 0.0625 kg/ha): 0.0 | Herbicidal rating CYPIR (CYPIR (Rice Flatsedge); 0.1250 kg/ha): 0.0 | Herbicidal rating CYPIR (CYPIR (Rice Flatsedge); 0.2500 kg/ha): 0.0 | Preemergence herbicidal rating ZEAMX (ZEAMX (Corn, Field); rate 0.0313 kg/ha): 0.0 | Preemergence herbicidal rating ZEAMX (ZEAMX (Corn, Field); rate 0.0625 kg/ha): 3.0 | Preemergence herbicidal rating ZEAMX (ZEAMX (Corn, Field); rate 0.1250 kg/ha): 7.0 | Preemergence herbicidal rating ZEAMX (ZEAMX (Corn, Field); rate 0.2500 kg/ha): 9.0 | Postemergence herbicidal rating AMBEL (AMBEL (Ragweed, Common); Rate 0.0158 kg/ha): 9.0 | Postemergence herbicidal rating AMBEL (AMBEL (Ragweed, Common); Rate 0.0315 kg/ha): 9.0 | Postemergence herbicidal rating AMBEL (AMBEL (Ragweed, Common); Rate 0.0630 kg/ha): 9.0 | Postemergence herbicidal rating SETVI (SETVI (Foxtail, Green); Rate 0.0158 kg/ha): 0.0 | Postemergence herbicidal rating SETVI (SETVI (Foxtail, Green); Rate 0.0315 kg/ha): 4.0 | Postemergence herbicidal rating SETVI (SETVI (Foxtail, Green); Rate 0.0630 kg/ha): 9.0 | Herbicidal rating SAGPY ([7]; 0.0313 kg/ha): 0.0 | Herbicidal rating SAGPY ([7]; 0.0625 kg/ha): 0.0 | Herbicidal rating SAGPY ([7]; 0.1250 kg/ha): 0.0 | Herbicidal rating SAGPY ([7]; 0.2500 kg/ha): 0.0 | Postemergence herbicidal rating GLXMAW ([8]; Rate 0.0158 kg/ha): 7.0 | Postemergence herbicidal rating GLXMAW ([8]; Rate 0.0315 kg/ha): 7.0 | Postemergence herbicidal rating GLXMAW ([8]; Rate 0.0630 kg/ha): 7.0 | Herbicidal rating CYPSE (CYPSE (Flatsedge) [9]; 0.0313 kg/ha): 0.0 | Herbicidal rating CYPSE (CYPSE (Flatsedge) [9]; 0.0625 kg/ha): 0.0 | Herbicidal rating CYPSE (CYPSE (Flatsedge) [9]; 0.1250 kg/ha): 0.0 | Herbicidal rating CYPSE (CYPSE (Flatsedge) [9]; 0.2500 kg/ha): 0.0
